Reference: US12643887B2, “Heterocyclic derivatives with cardiomyocyte proliferation activity for treatment of heart diseases” (Tongji University, priority 2019, dated 2026)
Like-named read-outs stand apart in the source and are kept apart here.

Experiments:
Type in all cases: biochemical
human HIPK1 = target: T1, human HIPK1 (Homo sapiens, UniProt Q86Z02); test: HIPK1 enzyme assay (ADP-Glo)
T1 construct: Recombinant human HIPK1 (156-555); GST (N); purchased SignalChem H03-11G; host or cells: Sf9 insect cells
T1 sequence (Q86Z02 156-555): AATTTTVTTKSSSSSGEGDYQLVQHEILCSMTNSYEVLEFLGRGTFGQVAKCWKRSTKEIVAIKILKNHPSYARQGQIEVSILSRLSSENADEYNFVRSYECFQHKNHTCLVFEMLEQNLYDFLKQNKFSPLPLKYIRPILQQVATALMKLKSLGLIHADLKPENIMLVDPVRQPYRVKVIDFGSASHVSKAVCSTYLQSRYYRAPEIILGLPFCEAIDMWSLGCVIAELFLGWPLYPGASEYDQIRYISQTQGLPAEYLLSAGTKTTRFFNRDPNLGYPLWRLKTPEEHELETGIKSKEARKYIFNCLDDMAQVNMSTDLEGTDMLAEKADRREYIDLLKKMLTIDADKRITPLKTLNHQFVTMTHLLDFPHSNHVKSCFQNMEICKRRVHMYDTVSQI
Outline: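 Recombinant GST-tagged HIPK1 (156-555, Sf9), 4 nM, preincubated 30 min at 25° C with compound in Tris pH 7.5/MgCl2/BSA/DTT, then reacted 90 min with 0.05 mg/ml MBP and 5 μM ATP. ADP formed read by ADP-Glo luminescence; IC50 from four-parameter logistic fit of % inhibition versus Max/Min controls.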

human CLK1 = target: T2, human CLK1 (Homo sapiens, UniProt P49759); test: CLK1 enzyme assay (ADP-Glo)
T2 construct: Recombinant human CLK1 (129-end); GST (N); purchased SignalChem C57-11G; host or cells: Sf9 insect cells
T2 sequence (P49759 129-484 limits assumed): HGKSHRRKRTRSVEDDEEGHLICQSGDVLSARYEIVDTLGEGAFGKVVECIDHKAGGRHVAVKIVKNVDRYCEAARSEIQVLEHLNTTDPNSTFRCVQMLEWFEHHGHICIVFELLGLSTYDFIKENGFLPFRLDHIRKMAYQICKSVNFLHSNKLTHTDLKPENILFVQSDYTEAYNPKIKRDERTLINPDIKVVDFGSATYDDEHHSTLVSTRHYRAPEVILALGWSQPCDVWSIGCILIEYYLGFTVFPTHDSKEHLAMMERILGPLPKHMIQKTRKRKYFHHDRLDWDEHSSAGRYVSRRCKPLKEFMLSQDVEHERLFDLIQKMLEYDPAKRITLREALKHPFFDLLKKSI
Outline: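 GST-tagged CLK1 (129-end, Sf9-expressed) at 16 nM was preincubated with compound 30 min at 25 °C in 40 mM Tris pH 7.5, 20 mM MgCl2, 0.1 mg/ml BSA, 50 μM DTT. Reaction with 2 μM substrate and 10 μM ATP ran 60 min at 25 °C. ADP-Glo luminescence gave IC50 by four-parameter fit.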

human DYRK1A = target: T3, human DYRK1A (Homo sapiens, UniProt Q13627); test: DYRK1A enzyme assay (ADP-Glo)
T3 construct: Recombinant full-length DYRK1A (expressed in E. Coli cells with an N-terminal GST tag); GST (N); purchased SignalChem D09-10G; host or cells: E. coli
Outline: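 GST-tagged full-length human DYRK1A (E. coli, 3 nM) preincubated 30 min at 25 °C with compound in 40 mM Tris pH 7.5, 20 mM MgCl2, 0.1 mg/ml BSA, 50 μM DTT, then reacted 60 min with 20 μM DYRKtide and 60 μM ATP. ADP-Glo luminescence; IC50 by four-parameter logistic fit.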

[1] = ADP-Glo, ATP 5 μM, read-out: HIPK1 IC50
[2] = ADP-Glo, ATP 10 μM, read-out: CLK1 IC50
[3] = ADP-Glo, ATP 60 μM, read-out: DYRK1A IC50

SMILES | IC50 (human HIPK1; [1]) [µM] | IC50 (human CLK1; [2]) [µM] | IC50 (human DYRK1A; [3]) [µM] | IC50 (human DYRK1A) [µM] | IC50 (human HIPK1) [µM] | IC50 (human CLK1) [µM]
CN(C1=N/C(=C\c2ccc3ncccc3c2)C(=O)N1)c1ccc2ncsc2c1 [Example 85, (Z)-2-(benzo[d]thiazol-6-yl(methyl)amino)-5-(quinolin-6-ylmethylene)-3,5-dihydro-4H-imidazol-4-one] | > 10 | 0.1 to 1 | 0.1 to 1 | – | – | –
CC(=O)N(C1=N/C(=C\c2ccc3ncsc3c2)C(=O)N1)c1ccc2ncsc2c1 [Example 91, (Z)—N-(benzo[d]thiazol-6-yl)-N-(4-(benzo[d]thiazol-6-ylmethylene)-5-oxo-4,5-dihydro-1H-imidazol-2-yl)acetamide] | 0.1 to 1 | < 0.1 | < 0.1 | – | – | –
Nc1ccc(NC2=N/C(=C\c3ccc4ncsc4c3)C(=O)N2)cc1 [Example 98, (Z)-2-((4-aminophenyl)amino)-5-(benzo[d]thiazol-6-ylmethylene)-3,5-dihydro-4H-imidazol-4-one] | 0.1 to 1 | < 0.1 | – | – | – | –
CN(C1=N/C(=C\c2ccc3ncsc3c2)C(=O)N1)c1ccc2c(c1)ncn2C [Example 86, (Z)-5-(benzo[d]thiazol-6-ylmethylene)-2-(methyl(1-methyl-1H-benzo[d]imidazol-5-yl)amino)-3,5-dihydro-4H-imidazol-4-one] | 1 to 10 | 1 to 10 | 1 to 10 | – | – | –
COCCN(C1=N/C(=C\c2ccc3ncsc3c2)C(=O)N1)c1ccc2ncsc2c1 [Example 89, (Z)-2-(benzo[d]thiazol-6-yl(2-methoxyethyl)amino)-5-(benzo[d]thiazol-6-ylmethylene)-3,5-dihydro-4H-imidazol-4-one] | 1 to 10 | < 0.1 | 0.1 to 1 | – | – | –
CN1C(=O)/C(=C/c2ccc3ncsc3c2)N=C1Nc1ccc2ncsc2c1 [Example 88, (Z)-2-(benzo[d]thiazol-6-ylamino)-5-(benzo[d]thiazol-6-ylmethylene)-3-methyl-3,5-dihydro-4H-imidazol-4-one] | > 10 | < 0.1 | < 0.1 | – | – | –
CN(C1=N/C(=C\c2ccc3[nH]ccc3c2)C(=O)N1)c1ccc2ncsc2c1 [Example 87, (Z)-5-((1H-indol-5-yl)methylene)-2-(benzo[d]thiazol-6-yl(methyl)amino)-3,5-dihydro-4H-imidazol-4-one] | > 10 | > 10 | > 10 | – | – | –
CCN(C1=N/C(=C\c2ccc3c(c2)OCO3)C(=O)N1)c1ccccc1 [Example 4, (Z)-5-(benzo[d][1,3]dioxol-5-ylmethylene)-2-(ethyl(phenyl)amino)-3,5-dihydro-4H-imidazol-4-one] | > 10 | 0.1 to 1 | 0.1 to 1 | – | – | –
O=C1NC(Nc2ccc3ncsc3c2)=N/C1=C\c1cncs1 [Example 92, (Z)-2-(benzo[d]thiazol-6-ylamino)-5-(thiazol-5-ylmethylene)-3,5-dihydro-4H-imidazol-4-one] | 0.1 to 1 | < 0.1 | 0.1 to 1 | – | – | –
CC(=O)N(C1=N/C(=C\c2ccc3c(c2)OCO3)C(=O)N1)c1ccccc1 [Example 5, (Z)—N-(4-(benzo[d][1,3]dioxol-5-ylmethylene)-5-oxo-4,5-dihydro-1H-imidazol-2-yl)-N-phenylacetamide] | – | – | – | < 0.1 | 0.1 to 1 | 0.1 to 1
Cc1nc2ccc(NC3=N/C(=C\c4ccc5ncsc5c4)C(=O)N3)cc2s1 [Example 90, (Z)-5-(benzo[d]thiazol-6-ylmethylene)-2-((2-methylbenzo[d]thiazol-6-yl)amino)-3,5-dihydro-4H-imidazol-4-one] | > 10 | < 0.1 | < 0.1 | – | – | –

The next lines start with results.

IC50 (human HIPK1; [1]) [µM] | IC50 (human CLK1; [2]) [µM] | IC50 (human DYRK1A; [3]) [µM] | SMILES | IC50 (human DYRK1A) [µM] | IC50 (human HIPK1) [µM] | IC50 (human CLK1) [µM]
> 10 | 0.1 to 1 | – | O=C1NC(Nc2ccc3sccc3c2)=N/C1=C\c1ccc2ncsc2c1 [Example 101, (Z)-2-(benzo[b]thiophen-5-ylamino)-5-(benzo[d]thiazol-6-ylmethylene)-3,5-dihydro-4H-imidazol-4-one] | – | – | –
0.1 to 1 | 0.1 to 1 | – | O=C1NC(Nc2ccc3nc[nH]c3c2)=N/C1=C\c1ccc2ncsc2c1 [Example 97, (Z)-2-((1H-benzo[d]imidazol-6-yl)amino)-5-(benzo[d]thiazol-6-ylmethylene)-3,5-dihydro-4H-imidazol-4-one] | – | – | –
> 10 | < 0.1 | 0.1 to 1 | O=C1NC(N(Cc2ccccc2)c2ccc3ncsc3c2)=N/C1=C\c1ccc2ncsc2c1 [Example 99, (Z)-2-(benzo[d]thiazol-6-yl(benzyl)amino)-5-(benzo[d]thiazol-6-ylmethylene)-3,5-dihydro-4H-imidazol-4-one] | – | – | –
> 10 | > 10 | > 10 | O=C1NC(=S)N/C1=C\c1ccc2sccc2c1 [Example 96, (Z)-5-(benzo[b]thiophen-5-ylmethylene)-2-thioxoimidazolidin-4-one] | – | – | –
> 10 | > 10 | – | O=C1NC(Nc2ccc3ncsc3c2)=N/C1=C\c1ccc2nccnc2c1 [Example 94, (Z)-2-(benzo[d]thiazol-6-ylamino)-5-(quinoxalin-6-ylmethylene)-3,5-dihydro-4H-imidazol-4-one] | – | – | –
> 10 | > 10 | > 10 | O=C1NC(Nc2ccc3ncsc3c2)=N/C1=C\c1ccc2cn[nH]c2c1 [Example 95, (Z)-5-((1H-indazol-6-yl)methylene)-2-(benzo[d]thiazol-6-ylamino)-3,5-dihydro-4H-imidazol-4-one] | – | – | –
> 10 | 1 to 10 | 0.1 to 1 | CC(C)Nc1nc2ccc(NC3=N/C(=C\c4ccc5ncsc5c4)C(=O)N3)cc2s1 [Example 100, (Z)-5-(benzo[d]thiazol-6-ylmethylene)-2-((2-(isopropylamino)benzo[d]thiazol-6-yl)amino)-3,5-dihydro-4H-imidazol-4-one] | – | – | –
0.1 to 1 | < 0.1 | < 0.1 | Cn1cnc2ccc(NC3=N/C(=C\c4ccc5ncsc5c4)C(=O)N3)cc21 [Example 93, (Z)-5-(benzo[d]thiazol-6-ylmethylene)-2-((1-methyl-1H-benzo[d]imidazol-6-yl)amino)-3,5-dihydro-4H-imidazol-4-one] | – | – | –
